Assay results reported in PMC12563652 (International Journal of Molecular Sciences, 2025).
Where two headings read alike, the source gives them in different places.

Key:
HEPG2 cell line = type: cell-based; settings: human, 24 h
Method: (§1) Prior to investigating the biological activity and molecular characteristics of the test compounds in vitro, a comprehensive cytotoxicity screening was performed using HepG2 and 3T3-L1 cell lines. Two complementary assays were applied: one based on the quantification of adenylate kinase release as an indicator of cell membrane damage, and another relying on resazurin reduction to assess cellular metabolic activity. These complementary assays enable sensitive and reliable detection of cytotoxic effects across diverse cell types. This preliminary assessment was carried out to ensure that subsequent functional analyses would not be confounded by nonspecific cytotoxic effects.
(§2) The damage of cell membrane was evaluated with the ToxiLight BioAssay Kit from Lonza (Visp, Switzerland). This test is very sensitive and measures cell damage by looking at the release of adenylate kinase (AK). After 24 h of treatment, 5 µL of culture supernatant was transferred to a 384-well white plate (PerkinElmer, Singapore), followed by the addition of 20 µL of Adenylate Kinase Detection Reagent (AKDR). After a 10 min incubation at room temperature, luminescence was measured using the POLARstar Omega plate reader (BMG Labtech, Ortenberg, Germany). Results were expressed as a percentage relative to a lysed control (100% cell death).

3T3L1 cell line = type: cell-based; settings: mouse, 24 h
Method: as §1, §2

HepG2 cells = assay: Glucose consumption (Amplex Red assay) in HepG2 cells; type: cell-based, human
Method: The HepG2 human hepatocellular carcinoma cell line (ATCC® HB-8065™) was cultured in DMEM supplemented with 10% FBS, 100 µg/mL streptomycin, and 100 IU/mL penicillin at 37 °C in 5% CO2. Cells were seeded in 96-well plates at a density of 10,000 cells/well and used for experiments 24 h after plating.
Stock solutions of test compounds were prepared at a concentration of 10 mM in dimethyl sulfoxide (DMSO). At least 1 mg of each substance was carefully measured and mixed with the right amount of DMSO. A series of dilutions were made in DMSO and then further diluted in phosphate-buffered saline before being introduced into the cell culture medium. Precipitation or opalescence was assessed prior to application.
The glucose uptake was measured with the Amplex® Red Glucose/Glucose Oxidase Assay Kit from Thermo Fisher Scientific, following the guidelines provided by the maker. Cell culture supernatants were collected and incubated with a reaction mix containing 100 μM Amplex® Red reagent, 0.2 U/mL horseradish peroxidase (HRP), and 1 U/mL glucose oxidase at room temperature for 30 min in the dark. Fluorescence was measured at 530 nm excitation and 590 nm emission using the POLARstar Omega plate reader (BMG Labtech).

Danio rerio larvae = assay: Fructose-induced lipid disturbance in zebrafish larvae (Oil Red O); type: in vivo; settings: 10 µg/mL with 4% fructose, 24 h
Method: Zebrafish larvae 4 dpf were incubated for another 24 h with 4% fructose (final solution) in embryo medium to induce metabolic disorders. Tested solutions (compounds in E3: JP-14 at concentration of 20 μg/mL or resveratrol of 40 μg/mL) were added to fructose solution (8% in E3). The final concentration of JP-14 was 10 μg/mL or resveratrol of 20 μg/mL. The control group was incubated with E3 only. Incubation was carried out in a 6-well plate (10 larvae/well) to which 3 mL of liquid was added per well. Larvae were then collected, euthanized with tricaine, and transferred to 4% formaldehyde solution. After 24 h, larvae were washed 3 times with PBS (Sigma-Aldrich, Germany) and stained for neutral lipids, similar to previous studies. Larvae incubated for 1 h in a solution of 0.25% oil red O (ORO, Merck, Darmstadt, Germany) in 60% isopropanol (Merck, Germany). The samples were then rinsed three times with 60% isopropanol and washed 6 times with PBS, then imaged on a microscope (OPTA-TECH MN16, Warszawa, Poland) and analyzed with the ImageJ FIJI program. […] Next, the samples were centrifuged (10 min, 3000 rpm, MPW-260R, MPW Med Instruments, Warszawa, Poland), and the amount of dye in supernatant was determined spectrophotometrically (MuLTISKAN.GO, Thermo Fisher Scientific Inc. Waltham, MA, USA) at a wavelength of 495 nm.

α2-adrenoceptor = assay: Competitive radioligand binding, [3H]clonidine, rat cerebral cortex; settings: n.a. = no activity at 10–5 M
Method: The competitive radioligand-binding assay assessed affinity for α1- and α2-adrenoceptors. Experiments were carried out in the rat cerebral cortex. […] The membrane preparation and assay technique followed the previously reported protocol [10]. Radioactivity was measured using the MicroBeta2 scintillation counter (PerkinElmer, Kraków, Poland). The data was adjusted to match a single-site curve-fitting formula using Prism 8 (GraphPad Software, La Jolla, CA, USA), and the Ki values were estimated by means of the Cheng–Prusoff formula.

α2A-adrenoceptor = target: T1, α2A-adrenoceptor (Homo sapiens, UniProt P08913); assay: α2A-adrenoceptor intrinsic activity, agonist mode (Tango bla reporter assay); type: cell-based; settings: read-out: α2A Ago Emax, receptor activation relative to the full agonist control
T1 sequence (P08913 1-465): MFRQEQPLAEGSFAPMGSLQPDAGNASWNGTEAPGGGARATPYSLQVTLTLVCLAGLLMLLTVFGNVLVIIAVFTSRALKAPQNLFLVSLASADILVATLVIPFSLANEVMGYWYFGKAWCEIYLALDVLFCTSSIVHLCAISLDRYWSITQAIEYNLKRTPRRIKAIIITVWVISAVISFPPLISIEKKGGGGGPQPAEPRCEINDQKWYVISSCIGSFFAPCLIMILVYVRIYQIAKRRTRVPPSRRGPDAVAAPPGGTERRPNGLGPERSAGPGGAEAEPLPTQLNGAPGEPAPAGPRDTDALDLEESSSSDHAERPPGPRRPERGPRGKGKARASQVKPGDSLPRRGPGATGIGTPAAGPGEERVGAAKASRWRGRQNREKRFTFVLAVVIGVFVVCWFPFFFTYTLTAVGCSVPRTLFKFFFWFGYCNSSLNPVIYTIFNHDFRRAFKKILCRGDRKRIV
Method: Intrinsic α2A-adrenoceptor activity was assessed using Tango assay technology, which utilizes a mammalian-optimized beta-lactamase (bla) reporter gene in conjunction with a FRET-enabled substrate to provide reliable and sensitive detection in cells. The intrinsic activity test was conducted based on the guidelines provided by the maker of the test kit (Invitrogen, Life Technologies, Carlsbad, CA, USA). […] To perform the agonist assay, 8 μL of a 5-fold higher concentration of agonist in assay medium was added to the cells. […] The agonist and antagonist plates were then incubated in a humidified incubator at 37 °C and 5% CO2 for 5 h. After incubation, cells were loaded with 8 μL of LiveBLAzer™-FRET B/G substrate mix (CCF4-AM), covered for light protection, and incubated at room temperature for 2 h.

3T3-L1 cell line = assay: Cell viability assay (PrestoBlue, metabolic function), 3T3-L1; type: cell-based, mouse; settings: 24 h, mean
Method: as §1
Cell viability was measured using PrestoBlue reagent (Thermo Fisher Scientific, Waltham, MA, USA), following the manufacturer’s instructions. After 24 h of compound treatment, PrestoBlue reagent was added to each well at 10% of the remaining medium volume. The plate was incubated at 37 °C for 15 min, and fluorescence was measured using the POLARstar Omega plate reader (excitation 530 nm, emission 580 nm). Results were expressed as a percentage of viable cells relative to the DMSO-treated control.

With `[H]/N=C(\N)NN=Cc1c(Cl)cncc1Cl` [JP-14, (E)-2-((3,5-Dichloropyridin-4-yl)Methylene)Hydrazine-1-Carboximidamide] the “membrane integrity, percentage relative to control (death cells)” value (HEPG2 cell line; 0.1 μM) was 6%, the “membrane integrity, percentage relative to control (death cells)” value (HEPG2 cell line; 1 μM) was 6% and the “membrane integrity, percentage relative to control (death cells)” value (HEPG2 cell line; 10 μM) was 6%. For the same compound, the “membrane integrity, percentage relative to control (death cells)” value (HEPG2 cell line; 50 μM) was 10%, the “membrane integrity, percentage relative to control (death cells)” value (HEPG2 cell line; 100 μM) was 8% and the “membrane integrity, percentage relative to control (death cells)” value (3T3L1 cell line; 0.1 μM) was 6%. The “membrane integrity, percentage relative to control (death cells)” value (3T3L1 cell line; 1 μM) was 6%, the “membrane integrity, percentage relative to control (death cells)” value (3T3L1 cell line; 10 μM) was 5% and the “membrane integrity, percentage relative to control (death cells)” value (3T3L1 cell line; 50 μM) was 4%. The “membrane integrity, percentage relative to control (death cells)” value (3T3L1 cell line; 100 μM) was 5%, the “glucose-stimulating effect under TAAR1 blockade” value (HepG2 cells; 10 µM + RTI-7470-44 (40 nM)) was “substantially attenuated” and the “increase in glucose consumption (uptake)” value (HepG2 cells; 10 µM, relative to vehicle-treated cells) was 29%. The fructose-induced yolk enlargement (Danio rerio larvae) was “partially attenuated”, the Ki (α2-adrenoceptor) was 126 ± 27 nM and the Emax (α2A-adrenoceptor) was about 15%. The “cellular metabolic function, percentage relative to control (live cells)” value (3T3-L1 cell line; Table S5, 0.1 μM) was 87%, the “cellular metabolic function, percentage relative to control (live cells)” value (3T3-L1 cell line; Table S5, 1 μM) was 85% and the “cellular metabolic function, percentage relative to control (live cells)” value (3T3-L1 cell line; Table S5, 10 μM) was 82%. The “cellular metabolic function, percentage relative to control (live cells)” value (3T3-L1 cell line; Table S5, 50 μM) was 80% and the “cellular metabolic function, percentage relative to control (live cells)” value (3T3-L1 cell line; Table S5, 100 μM) was 51%.
